Results as given in patent publication US11465989B2, “Guanidine compounds and use thereof” (IMMUNOMET THERAPEUTICS INC., priority 2014, dated 2022).

What was measured:
SK-MEL-239 tumor cells [1] = experiment: In vivo xenograft model using SK-MEL-239 cell; set-up: species or system mice
Protocol: The compounds of the present invention were evaluated in vivo using xenograft human cancer model in mice. The compounds of invention were administrated orally or interperitoneal injection. Tumor cell lines were cultured in vitro as monolayer culture. Using female BALB/c nude mice with immune system compromised, each mouse was inoculated subcutaneously at the right flank with tumor cells for tumor development. The treatment was started when the tumor size reaches approximately 100 mm^3
The SK-MEL-239 tumor cell line was maintained in vitro as monolayer in RPMII 640 medium supplemented with 10% heat inactivated fetal bovine serum, 100 U/ml penicillin and 100 μg/ml streptomycin, and L-glutamine (2 mM) at 37° C. in an atmosphere of 5% CO2 in air. The tumor cells were routinely subcultured twice weekly with 0.5% trypsin-EDTA treatment. The cells growing in an exponential growth phase were harvested and counted for tumor cell inoculation.
Female BALB/c nude mice aged 6-8 weeks and weighing approximately 18-22 g were purchased from Vital River. Each mouse was inoculated subcutaneously at the right flank with SK-MEL-239 tumor cells (1×10^7) in 0.1 ml of PBS for tumor development. The treatment was started, when the tumor size reaches approximately 100 mm^3. 100 mg/kg of Phenformin and 15 mg/kg of Vemurafenib were administered via oral gavage twice daily and 100 mg/kg HLPOI (HL176001001) was administered once daily for 21 days. Tumor volumes were measured twice a week in two dimensions using a caliper, and the volume was expressed in mm^3 using the formula: V=0.5×a×b^2, where a and b were the long and short diameters of the tumor, respectively. The T/C value (in percentage) was an indication of antitumor effect. T and C were the mean volumes of the treated and control groups, respectively.

SK-MEL-239 tumor cells [2] = experiment: In vivo xenograft model using SK-MEL-239 cell; set-up: species or system mice; details: Dosing 150/100 mg/kg, oral, twice daily
A549 cells = experiment: In vitro combination study with Dasatinib on A549 cell; assay type: cell-based; details: 0.05 μM of Dasatinib and 8 μM of Phenformin
Protocol: (§1) A549, H1975 (CRL5908, ATCC) or U937 cell (CRL1593.2™, ATCC) lines were cultured in RPMI 1640 media (Lifetechnologies, CA) with supplement of 10% FBS and antibiotic-antimycotic (Lifetechnologies, CA). Dasatinib (Combi-Blocks, San Diego, Calif.) is Bcr-Abl-tyrosine kinase inhibitor and Src family tyrosine kinase inhibitor approved for CML treatment. GDC094 (Selleckchem, Houston, Tex.) is a pan-PI3K inhibitor and effective in various cancer cells. H1975 or A549 cells were dissociated from culture plate using 0.5% trypsin-EDTA (Lifetechnologies, CA) and were suspended. U937 cells were spun down using centrifugation. […]
(§2) Among four concentrations of the compounds of present invention, the highest concentration was set to IC80 and the lowest concentration was approximately IC30. […] 100 μl of DMSO was added after removing MTT solution from each well, and were read by VICTOR X3 Multilabel Counter at the wavelength of 550 nm.
(§3) For the analysis of U937 cell viability, 20 μl of Celltiter96® AQueous one solution (MTS, Promega, Madison, Wis.) were added to each well, and plates were incubated at 37° C. and 5% CO2. After 2 hours later, plates read by VICTOR X3 Multilabel Counter at the wavelength of 490 nm. The combination index (CI value) was calculated using Calcusyn (Biosoft, UK).

H1975 cell = experiment: In vitro combination study with Dasatinib on H1975 cell; assay type: cell-based; details: 0.2 μM of Dasatinib, 8 μM or 40 μM of Example 1, 40 μM or 200 μM of Example 104
Protocol: as §1, §2, §3

[3] = Dosing 15 mg/kg, oral, twice daily, Day 28

For `[H]/N=C(/N)N/C(=N/[H])NCCc1ccccc1` [Phenformin, phenformin, reference compound], the “tumor volume compared to the control group” value (SK-MEL-239 tumor cells [1]; 100 mg/kg, Phenformin twice daily, Example 1 once daily) was “significant reduction of tumor volume”, the “tumor volume compared to the single administration of Vemurafenib” value (SK-MEL-239 tumor cells [1]; in combination with 15 mg/kg of Vemurafenib) was “did not show the significant reduction of tumor volume” and the “T/C (Day 28, %)” value (SK-MEL-239 tumor cells [2]) was 52.2%. For the same compound, the “Tumor Volume (Day 28, mm^3, a)” value (SK-MEL-239 tumor cells [2]) was 1,562 ± 166 mm^3 and the “synergic effect in combination with Dasatinib” value (A549 cells) was “did not show the synergic effect”.
In the case of `Cl.N=C(N)NC(=N)NCCc1ccc(F)cc1` [Example 104, N-1-(4-fluoro)phenethylbiguanide hydrochloride], the “combination therapy effect with Dasatinib” value (H1975 cell) is reported as “low combination therapy effect”.
`CCCS(=O)(=O)Nc1ccc(F)c(C(=O)c2c[nH]c3ncc(-c4ccc(Cl)cc4)cc23)c1F` [Vemurafenib, reference compound] was tested, and the “T/C (Day 28, %)” value (SK-MEL-239 tumor cells [1]; [3]) was 38.0% and the “Tumor Volume (Day 28, mm^3, a)” value (SK-MEL-239 tumor cells [1]; [3]) was 1,144 ± 101 mm^3.
